Test results from ChEMBL document CHEMBL1201862, “PubChem BioAssay data set” (2004).
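Values below derive from 48-hour exposures of cells grown in 96-well plates, with endpoints linearly interpolated between the two concentrations bracketing the appropriate inhibition level. The concentration for 50% growth inhibition is given as GI50.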 Activity calls are given as the source filed them. Rule as the data show it: active = GI50 up to about 1.1 µM and inactive = higher.

Legend:
Experiment in all cases: NCI-60 cell line screen, 48 h
KM12 = system: KM12
XF498 = system: XF498
NCI-H23 = system: NCI-H23
RPMI-8226 = system: RPMI-8226
DMS-273 = system: DMS-273
SR = system: SR
U-251 = system: U-251
SW-620 = system: SW-620
ACHN = system: ACHN
SF-539 = system: SF-539
IGROV-1 = system: IGROV-1
K562 = system: K562
HCT-116 = system: HCT-116
TK-10 = system: TK-10
UO-31 = system: UO-31
CAKI-1 = system: CAKI-1
RXF 393 = system: RXF 393
OVCAR-5 = system: OVCAR-5
UACC-257 = system: UACC-257
MOLT-4 = system: MOLT-4
NCI-H226 = system: NCI-H226
COLO 205 = system: COLO 205
LXFL 529 = system: LXFL 529
LOX IMVI = system: LOX IMVI
A498 = system: A498
SK-OV-3 = system: SK-OV-3
HCT-15 = system: HCT-15
HT-29 = system: HT-29
CCRF-CEM = system: CCRF-CEM
SF-268 = system: SF-268
OVCAR-3 = system: OVCAR-3
NCI-H460 = system: NCI-H460
HOP-18 = system: HOP-18
HCC 2998 = system: HCC 2998
DMS-114 = system: DMS-114
A549 = system: A549
EKVX = system: EKVX
SNB-78 = system: SNB-78
DLD-1 = system: DLD-1
M19-MEL = system: M19-MEL
NCI-H522 = system: NCI-H522
SK-MEL-28 = system: SK-MEL-28
SF-295 = system: SF-295
M14 = system: M14
SK-MEL-5 = system: SK-MEL-5
UACC-62 = system: UACC-62
HOP-92 = system: HOP-92
SNB-19 = system: SNB-19
SK-MEL-2 = system: SK-MEL-2
OVCAR-8 = system: OVCAR-8
SN12C = system: SN12C
OVCAR-4 = system: OVCAR-4
KM-20L2 = system: KM-20L2
786-0 = system: 786-0
HL-60 = system: HL-60
HOP-62 = system: HOP-62
SNB-75 = system: SNB-75
Malme-3M = system: Malme-3M

**Q.** With `CCOCN/C(N)=N\C#N` as the molecule, how does the GI50 (KM12) read?
**A.** > 100 µM (inactive)

**Q.** And the GI50 (XF498)?
**A.** > 100 µM (inactive)

**Q.** And the GI50 (NCI-H23)?
**A.** > 100 µM (inactive)

**Q.** What about the GI50 (RPMI-8226) of the same molecule?
**A.** > 100 µM (inactive)

**Q.** And the GI50 (DMS-273)?
**A.** > 100 µM (inactive)

**Q.** And the GI50 (SR)?
**A.** 36.6 µM (inactive)

**Q.** What about the GI50 (U-251) of the same molecule?
**A.** > 100 µM (inactive)

**Q.** What about the GI50 (SW-620) of the same molecule?
**A.** 18.3 µM (inactive)

**Q.** And the GI50 (ACHN)?
**A.** > 100 µM (inactive)

**Q.** What about the GI50 (SF-539) of the same molecule?
**A.** > 100 µM (inactive)

**Q.** And the GI50 (IGROV-1)?
**A.** > 100 µM (inactive)

**Q.** What about the GI50 (K562) of the same molecule?
**A.** 66.1 µM (inactive)

**Q.** And the GI50 (HCT-116)?
**A.** > 100 µM (inactive)

**Q.** What about the GI50 (TK-10) of the same molecule?
**A.** > 100 µM (inactive)

**Q.** And the GI50 (UO-31)?
**A.** > 100 µM (inactive)

**Q.** And the GI50 (CAKI-1)?
**A.** > 100 µM (inactive)

**Q.** What about the GI50 (RXF 393) of the same molecule?
**A.** 61.8 µM (inactive)

**Q.** And the GI50 (OVCAR-5)?
**A.** > 100 µM (inactive)

**Q.** And the GI50 (UACC-257)?
**A.** > 100 µM (inactive)

**Q.** What about the GI50 (MOLT-4) of the same molecule?
**A.** > 100 µM (inactive)

**Q.** What about the GI50 (NCI-H226) of the same molecule?
**A.** > 100 µM (inactive)

**Q.** What about the GI50 (COLO 205) of the same molecule?
**A.** > 100 µM (inactive)

**Q.** What about the GI50 (LXFL 529) of the same molecule?
**A.** > 100 µM (inactive)

**Q.** What about the GI50 (LOX IMVI) of the same molecule?
**A.** 12.1 µM (inactive)

**Q.** And the GI50 (A498)?
**A.** > 100 µM (inactive)

**Q.** And the GI50 (SK-OV-3)?
**A.** > 100 µM (inactive)

**Q.** And the GI50 (HCT-15)?
**A.** 20.5 µM

**Q.** And the GI50 (HT-29)?
**A.** > 100 µM (inactive)

**Q.** What about the GI50 (CCRF-CEM) of the same molecule?
**A.** > 100 µM (inactive)

**Q.** What about the GI50 (SF-268) of the same molecule?
**A.** > 100 µM (inactive)

**Q.** What about the GI50 (OVCAR-3) of the same molecule?
**A.** > 100 µM (inactive)

**Q.** What about the GI50 (NCI-H460) of the same molecule?
**A.** > 100 µM (inactive)

**Q.** And the GI50 (HOP-18)?
**A.** > 100 µM (inactive)

**Q.** What about the GI50 (HCC 2998) of the same molecule?
**A.** > 100 µM (inactive)

**Q.** And the GI50 (DMS-114)?
**A.** > 100 µM (inactive)

**Q.** What about the GI50 (A549) of the same molecule?
**A.** > 100 µM (inactive)

**Q.** And the GI50 (EKVX)?
**A.** > 100 µM (inactive)

**Q.** And the GI50 (SNB-78)?
**A.** > 100 µM (inactive)

**Q.** What about the GI50 (DLD-1) of the same molecule?
**A.** > 100 µM (inactive)

**Q.** What about the GI50 (M19-MEL) of the same molecule?
**A.** > 100 µM (inactive)

**Q.** And the GI50 (NCI-H522)?
**A.** > 100 µM (inactive)

**Q.** And the GI50 (SK-MEL-28)?
**A.** > 100 µM (inactive)

**Q.** What about the GI50 (SF-295) of the same molecule?
**A.** > 100 µM (inactive)

**Q.** What about the GI50 (M14) of the same molecule?
**A.** > 100 µM (inactive)

**Q.** What about the GI50 (SK-MEL-5) of the same molecule?
**A.** > 100 µM (inactive)

**Q.** What about the GI50 (UACC-62) of the same molecule?
**A.** > 100 µM (inactive)

**Q.** And the GI50 (HOP-92)?
**A.** > 100 µM (inactive)

**Q.** And the GI50 (SNB-19)?
**A.** > 100 µM (inactive)

**Q.** And the GI50 (SK-MEL-2)?
**A.** > 100 µM (inactive)

**Q.** And the GI50 (OVCAR-8)?
**A.** > 100 µM (inactive)

**Q.** And the GI50 (SN12C)?
**A.** > 100 µM (inactive)

**Q.** And the GI50 (OVCAR-4)?
**A.** > 10 µM (inactive)

**Q.** What about the GI50 (KM-20L2) of the same molecule?
**A.** 89.1 µM (inactive)

**Q.** What about the GI50 (786-0) of the same molecule?
**A.** 23.9 µM (inactive)

**Q.** What about the GI50 (HL-60) of the same molecule?
**A.** > 100 µM (inactive)

**Q.** And the GI50 (HOP-62)?
**A.** > 100 µM (inactive)

**Q.** And the GI50 (SNB-75)?
**A.** > 100 µM (inactive)

**Q.** What about the GI50 (Malme-3M) of the same molecule?
**A.** > 100 µM (inactive)
